Measured values: US7452865B2, “Antagonistic analogs of GH RH (2003)” (The Administrare's of the Tulane Educational Fund, priority 2004, dated 2008)
Marks after values point to notes of the source that are not given here. Square brackets hold non-standard residues; d marks the D form. Peptide text beside a SMILES is read from it. * marks the point of attachment. Phe(4-amidino) = N=C(N)c1ccc(C[C@H](N)C(=O)O)cc1; Phe(4-Cl) = N[C@@H](Cc1ccc(Cl)cc1)C(=O)O; hArg = N=C(N)NCCCC[C@H](N)C(=O)O; Nle = CCCC[C@H](N)C(=O)O; Abu = CC[C@H](N)C(=O)O; PhAc = O=C(Cc1ccccc1)*

Assays:
[1] = test system: hGH-RH(1-29)NH2 induced GH release; assay: Inhibition of GH release in superfused rat pituitary system; format: cell-based
Summary of the method: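 Dispersed rat pituitary cells in superfusion were preincubated 9 min with analog at various concentrations, then stimulated with 1 nM hGH-RH(1-29)NH2 for 3 min, repeated at 30, 60, 90, 120 min to gauge duration. GH measured by double-antibody RIA; net integrated responses expressed as percent of the initial 1 nM GH-RH response.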

[2] = test system: PC-3 human prostate cancer xenografts; assay: PC-3 xenografts in nude mice, Experiment 1: tumor growth; format: in vivo
Summary of the method: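 Male nude mice carried s.c. PC-3 hormone-independent prostate tumour fragments on both flanks. Once tumours reached about 50 mm^3, groups of 7–8 mice received vehicle or peptide at 10 μg/day s.c. once daily for 28 days. Tumour volume was measured twice weekly, with tumour weight and serum IGF-I (RIA) taken at day 29; data are means ±S.E., two-tailed t-test.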

[3] = test system: IGF-II; assay: PC-3 xenografts, Experiment 1: tumor IGF-II (RIA); format: in vivo, nude mice; details: 10 μg/day s.c., 28 days
Source text: (§1) For the measurement of GH and IGF-I levels in the serum, as well as IGF-I and IGF-II concentrations in the cytosol fraction of tumors, blood samples and tumor samples were collected and processed as described (Braczkowski R, Schally A V, Plonowski A, Varga J L, Groot K, Krupa M, Armatis P, Cancer 95: 1735-1745, 2002), hereby incorporated by reference. Briefly, blood samples are centrifuged to separate the serum, tumors are homogenized and centrifuged to separate the cytosol fraction. Serum GH is then measured by the double-antibody RIA method. Before measurement by RIA, IGF-I and IGF-II are extracted from serum and cytosol fractions using an acid-ethanol cryoprecipitation method that eliminates most of the IGF binding proteins, which can interfere with the RIA. IGF-I concentration is measured by RIA using IGF-I as a standard and goat anti-IGF-I antibody (both from DSL Inc., Webster, Tex.). IGF-II concentration is measured by RIA using human recombinant IGF-II (Bachem) as a standard and anti-IGF-II monoclonal antibody (Amano International Enzyme, Troy, Va.).
Male nude mice were implanted s.c. with 3 mm^3 pieces of PC-3 human hormone-independent prostate cancer tissue on both flanks. When tumors reached a volume of approx. 50 mm^3, the mice were divided into 5 experimental groups with 7 to 8 animals in each group and received single daily injections for 28 days as follows: 1. Control (vehicle solution); 2. JV-1-38 (10 μg/day s.c.); 3 Peptide 31 (10 μg/day s.c.); 4. Peptide 67 (10 μg/day s.c.); 5. Peptide 62 (10 μg/day s.c.). Tumor volumes were measured twice a week. The experiment was ended on day 29 by sacrificing the mice under Isoflurane anesthesia. Resulting tumors were cleaned, weighed, and snap-frozen until further analyses. Trunk blood was collected from the abdominal aorta and serum was separated for RIA measurement of IGF-I. Statistical analyses of the measurement results were done by two-tailed t-test; data are presented as the means±S.E.

[4] = test system: IGF-I; assay: DMS-153 human SCLC xenografts: serum IGF-I; format: in vivo, nude mice; details: 10 μg/day s.c., 6 weeks
Source text: as §1
Male nude mice were implanted s.c. with 3 mm^3 pieces of DMS-153 human SCLC tissue. When tumors reached a volume of approx. 100 mm^3 the mice were divided into 3 experimental groups of 68 animals each and received the following treatment for 6 weeks group 1 (control), vehicle solution; group 2, Peptide 67 (10 μg/day s.c.); group 3, Peptide 31 (10 μg/day s.c.). Tumor volumes were recorded twice a week. At the end of treatment, mice were anesthetized with isoflurane, killed by decapitation, trunk blood was collected for measurement of serum IGF-I, and tumors were excised and weighed. Data are presented as means±S.E. Data were evaluated by one way ANOVA and the Student-Newman-Keuls test.

[5] = 10 μg/day s.c., 28 days, vs control

SMILES: CCCC[C@H](NC(=O)[C@@H](NC(=O)[C@H](CC(=O)O)NC(=O)[C@H](CCC(N)=O)NC(=O)[C@H](CC(C)C)NC(=O)[C@H](CC(C)C)NC(=O)[C@H](CCCCN)NC(=O)[C@H](CCCNC(=N)N)NC(=O)[C@H](C)NC(=O)[C@H](CO)NC(=O)[C@H](CC(C)C)NC(=O)[C@H](CCC(N)=O)NC(=O)[C@H](CC)NC(=O)[C@H](CC(C)C)NC(=O)[C@@H](NC(=O)[C@H](CCCCN)NC(=O)[C@H](CCCNC(=N)N)NC(=O)[C@H](Cc1ccc(OC)cc1)NC(=O)[C@H](Cc1ccc(C(=N)N)cc1)NC(=O)[C@H](CC(N)=O)NC(=O)[C@@H](NC(=O)[C@H](Cc1ccc(Cl)cc1)NC(=O)[C@@H](NC(=O)[C@H](C)NC(=O)[C@H](CC(=O)O)NC(=O)[C@@H](CCCNC(=N)N)NC(=O)[C@H](Cc1ccc(O)cc1)NC(=O)Cc1ccccc1)[C@@H](C)CC)[C@@H](C)O)C(C)C)[C@@H](C)CC)C(=O)N[C@H](CCCNC(=N)N)C(=O)N[C@@H](CCCCNC(=N)N)C(N)=O [Peptide 67, [PhAc-Tyr^1, D-Arg^2, Phe(pCl)^6, Amp^9, Tyr(Me)^10, Abu^15, Nle^27, D-Arg^28, Har^29]hGH-RH(1-29)NH2] (PhAc-Y[dR]DAI[Phe(4-Cl)]TN[Phe(4-amidino)]Y(Me)RKVL[Abu]QLSARKLLQDI[Nle][dR][hArg]-NH2)
- GH response (% of control) 0 min ([1]; antagonist 30 nM, 1 nM hGH-RH(1-29)NH2 at 0 min): 28 % of control
- GH response (% of control) 30 min ([1]; antagonist 30 nM, 1 nM hGH-RH(1-29)NH2 at 30 min): 15 % of control
- GH response (% of control) 60 min ([1]; antagonist 30 nM, 1 nM hGH-RH(1-29)NH2 at 60 min): 18 % of control
- GH response (% of control) 90 min ([1]; antagonist 30 nM, 1 nM hGH-RH(1-29)NH2 at 90 min): 20 % of control
- GH response (% of control) 120 min ([1]; antagonist 30 nM, 1 nM hGH-RH(1-29)NH2 at 120 min): 23 % of control
- endocrine antagonistic potency: inhibition of the GH release stimulated by hGH-RH(1-29)NH2 (in words) ([1]; general statement, in vitro and in vivo): high endocrine antagonistic potencies
- Tumor volume (mm^3) Final ([2]; 10 μg/day s.c., 28 days): 200 ± 39.5* mm^3
- Tumor volume doubling time ([2]; 10 μg/day s.c., 28 days): 17.0 ± 3.51 days
- Tumor weight ([2]; 10 μg/day s.c., 28 days): 150 ± 22.1 mg
- Tumor volume Final (% inhibition) [2, 5]: (60%)
- Tumor weight (% inhibition) [2, 5]: (60%)
- inhibitory effect on the growth of PC-3 tumors (in words) ([2]; 10 μg/day s.c., compared with JV-1-38): stronger inhibitory effect on the growth of PC-3 tumors than the reference peptide JV-1-38
- Tumor volume (mm^3) Initial ([2]; at start of treatment): 46.8 ± 8.11 mm^3
- Tumor IGF-II (pg/mg protein) [3]: 139 ± 69.2 pg/mg protein
- Tumor IGF-II (% inhibition) ([3]; vs control): (37%)
- Serum IGF-I [4]: 117.9 ± 17.2 ng/mL
- Serum IGF-I (% inhibition) ([4]; vs control): (30%)
